These results are taken from ChEMBL document CHEMBL6177998, “Rational Design of Dual Degraders by Incorporating Molecular Glue Structural Features into PROTAC Degraders” (J Med Chem, 2025).

Molecules are shown by their SMILES.

What all share (assay type): cell-based
For test [1], the system named is Protein cereblon/Androgen receptor (Homo sapiens), P10275+Q96SW2 [UNDEFINED MUTATION]. Description: PROTAC activity at CRBN/Androgen receptor splice variant 7 in human VCaP cells assessed as induction of AR-V7 degradation at 1 uM incubated for 24 hrs by Western blot analysis relative to control. (In general: In western blotting, separated proteins are transferred to a membrane and probed.)
Chain of Protein cereblon/Androgen receptor (Homo sapiens), P10275+Q96SW2 [UNDEFINED MUTATION] (P10275 whole entry, looked up, stated change not applied, canonical isoform): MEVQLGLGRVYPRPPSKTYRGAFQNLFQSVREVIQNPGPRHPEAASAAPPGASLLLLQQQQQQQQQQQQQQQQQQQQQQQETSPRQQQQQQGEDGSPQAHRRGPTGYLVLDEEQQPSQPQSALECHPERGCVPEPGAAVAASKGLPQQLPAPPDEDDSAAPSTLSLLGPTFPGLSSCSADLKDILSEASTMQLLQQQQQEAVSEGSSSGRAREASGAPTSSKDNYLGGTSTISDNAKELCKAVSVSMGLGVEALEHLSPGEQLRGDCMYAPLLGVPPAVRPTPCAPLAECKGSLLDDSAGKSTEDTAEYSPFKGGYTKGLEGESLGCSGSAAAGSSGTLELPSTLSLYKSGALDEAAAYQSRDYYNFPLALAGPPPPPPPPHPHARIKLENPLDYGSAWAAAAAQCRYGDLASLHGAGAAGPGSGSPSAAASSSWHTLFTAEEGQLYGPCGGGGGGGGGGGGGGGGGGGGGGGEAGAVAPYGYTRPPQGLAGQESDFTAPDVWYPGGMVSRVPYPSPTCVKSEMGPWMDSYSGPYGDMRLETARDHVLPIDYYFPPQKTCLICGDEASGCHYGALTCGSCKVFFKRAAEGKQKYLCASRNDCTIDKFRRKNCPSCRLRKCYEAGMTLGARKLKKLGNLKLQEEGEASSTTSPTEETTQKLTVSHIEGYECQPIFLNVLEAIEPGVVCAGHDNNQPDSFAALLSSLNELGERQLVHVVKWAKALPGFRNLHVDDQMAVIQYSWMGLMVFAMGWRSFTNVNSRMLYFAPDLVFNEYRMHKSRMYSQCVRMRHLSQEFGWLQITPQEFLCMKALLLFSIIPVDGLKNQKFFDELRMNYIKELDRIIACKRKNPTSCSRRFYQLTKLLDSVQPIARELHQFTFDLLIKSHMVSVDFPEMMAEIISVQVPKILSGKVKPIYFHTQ
Chain of Protein cereblon/Androgen receptor (Homo sapiens), P10275+Q96SW2 [UNDEFINED MUTATION] (Q96SW2 whole entry, looked up, stated change not applied, canonical isoform): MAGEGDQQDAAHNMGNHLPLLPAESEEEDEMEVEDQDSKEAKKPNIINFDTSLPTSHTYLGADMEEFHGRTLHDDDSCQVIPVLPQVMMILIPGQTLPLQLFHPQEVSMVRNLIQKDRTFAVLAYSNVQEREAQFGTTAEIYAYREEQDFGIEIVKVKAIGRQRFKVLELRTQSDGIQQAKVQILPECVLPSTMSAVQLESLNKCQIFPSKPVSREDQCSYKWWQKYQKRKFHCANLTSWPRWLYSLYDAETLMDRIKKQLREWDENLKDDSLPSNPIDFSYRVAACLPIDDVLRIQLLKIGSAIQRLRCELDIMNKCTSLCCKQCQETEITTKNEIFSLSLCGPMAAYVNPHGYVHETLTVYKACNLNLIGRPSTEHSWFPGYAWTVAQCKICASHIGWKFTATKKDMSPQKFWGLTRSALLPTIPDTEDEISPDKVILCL

Test [2] addresses T1, Protein cereblon/Androgen receptor (Homo sapiens, UniProt P10275+Q96SW2). Description: PROTAC activity at CRBN/AR in human 22Rv1 cells assessed as induction of AR degradation at 1 uM incubated for 24 hrs by Western blot analysis relative to control.
In test [3] the target is T2, Protein cereblon/Eukaryotic peptide chain release factor GTP-binding subunit ERF3A (Homo sapiens, UniProt Q96SW2+P15170). Kind of test: Molecular glue activity at CRBN/GSPT1 in human 22Rv1 cells assessed as induction of GSPT1 degradation at 5 uM incubated for 24 hrs by Western blot analysis relative to control.
T2 sequence (P15170 whole entry, looked up, canonical isoform): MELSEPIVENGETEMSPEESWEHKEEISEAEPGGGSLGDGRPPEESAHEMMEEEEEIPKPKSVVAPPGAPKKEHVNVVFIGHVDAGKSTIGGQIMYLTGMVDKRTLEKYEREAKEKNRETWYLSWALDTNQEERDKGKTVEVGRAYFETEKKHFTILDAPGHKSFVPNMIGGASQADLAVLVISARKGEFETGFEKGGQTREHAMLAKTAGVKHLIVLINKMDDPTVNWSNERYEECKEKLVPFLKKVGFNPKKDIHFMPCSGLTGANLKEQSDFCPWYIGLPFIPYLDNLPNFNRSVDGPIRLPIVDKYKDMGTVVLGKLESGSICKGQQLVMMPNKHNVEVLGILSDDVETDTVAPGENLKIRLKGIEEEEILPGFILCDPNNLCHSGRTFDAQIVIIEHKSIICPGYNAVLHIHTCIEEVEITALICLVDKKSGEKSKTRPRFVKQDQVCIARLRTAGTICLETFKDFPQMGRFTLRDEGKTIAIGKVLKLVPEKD
T2 sequence (Q96SW2 whole entry, looked up, canonical isoform): as the sequence (Q96SW2 whole entry, looked up, stated change not applied, canonical isoform) above
The test system of test [4] is Protein cereblon/Androgen receptor (Homo sapiens), P10275+Q96SW2 [UNDEFINED MUTATION]. Kind of test: PROTAC activity at CRBN/Androgen receptor splice variant 7 in human VCaP cells assessed as induction of AR-V7 degradation at 5 uM incubated for 24 hrs by Western blot analysis relative to control.
Test [5] concerns the target T1, Protein cereblon/Androgen receptor. Description: PROTAC activity at CRBN/AR in human VCaP cells assessed as induction of AR degradation at 1 uM incubated for 24 hrs by Western blot analysis relative to control.
Test [6] relates to Protein cereblon/Androgen receptor (Homo sapiens), P10275+Q96SW2 [UNDEFINED MUTATION]. Description: PROTAC activity at CRBN/Androgen receptor splice variant 7 in human 22Rv1 cells assessed as induction of AR-V7 degradation at 5 uM incubated for 24 hrs by Western blot analysis relative to control.
Test [7] addresses T1, Protein cereblon/Androgen receptor. Kind of test: PROTAC activity at CRBN/AR in human 22Rv1 cells assessed as induction of AR degradation at 5 uM incubated for 24 hrs by Western blot analysis relative to control.
Test [8] concerns the target T2, Protein cereblon/Eukaryotic peptide chain release factor GTP-binding subunit ERF3A. Description: Molecular glue activity at CRBN/GSPT1 in human 22Rv1 cells assessed as induction of GSPT1 degradation at 1 uM incubated for 24 hrs by Western blot analysis relative to control.
The target of test [9] is T1, Protein cereblon/Androgen receptor. Kind of test: PROTAC activity at CRBN/AR in human VCaP cells assessed as induction of AR degradation at 5 uM incubated for 24 hrs by Western blot analysis relative to control.
Test [10] has as its system Protein cereblon/Androgen receptor (Homo sapiens), P10275+Q96SW2 [UNDEFINED MUTATION]. Kind of test: PROTAC activity at CRBN/Androgen receptor splice variant 7 in human 22Rv1 cells assessed as induction of AR-V7 degradation at 1 uM incubated for 24 hrs by Western blot analysis relative to control.

T1 sequence (P10275 whole entry, looked up): as the sequence (P10275 whole entry, looked up, stated change not applied, canonical isoform) above
T1 sequence (Q96SW2 whole entry, looked up): as the sequence (Q96SW2 whole entry, looked up, stated change not applied, canonical isoform) above

In the case of `CC(C)(c1ccc(OCC2CCN(C(=O)CCCCCNc3cccc4c3C(=O)N(C3CCC(=O)NC3=O)C4=O)CC2)cc1)c1ccc(OC[C@H](O)CCl)cc1` (stereo not given in full), the Activity in [1] was 21.6%; in [2] it was 11.7%; in test [3], 68.9%; in test [4] it was 36.1%; in test [5], under 5%; in [6] it was 25.5%. The Activity in test [7] was 19.7%; in [8], 65.1%; in test [9], 11.7%; in test [10] it was 28.4%.
On to `CC(C)(c1ccc(OCC2CCN(C3CN(C(=O)CCCNc4ccc5c(c4)C(=O)N(C4CCC(=O)NC4=O)C5=O)C3)CC2)cc1)c1ccc(OC[C@H](O)CCl)cc1` (stereo not given in full), for which the Activity in [1] was under 5%; in [2], 12.1%; in test [3] it was 76.7%; in [4] it was 24.2%; in test [5] it was 6.8%; in test [6], under 5%. Further, the Activity in test [7] amounted to 10.2%; in [8], 57.5%; in test [9] it was 25.4%; in test [10], 5%.
As for `CC(C)(c1ccc(OCC2CCN(C(=O)CCCCCCCNc3cccc4c3C(=O)N(C3CCC(=O)NC3=O)C4=O)CC2)cc1)c1ccc(OC[C@H](O)CCl)cc1` (stereo not given in full), the Activity is 8.4% in [1]; 7.8% in test [2]; 45.8% in test [3]; 14.3% in test [4]; under 5% in [5]; 52.3% in test [6]. The Activity in test [7] was 25%; in [8] it was 32.3%; in test [9], under 5%; in [10], 12.5%.
For the compound `CC(C)(c1ccc(OCC2CCN(C(=O)CCCC#Cc3ccc4c(c3)C(=O)N(C3CCC(=O)NC3=O)C4=O)CC2)cc1)c1ccc(OC[C@H](O)CCl)cc1` (stereo not given in full), the Activity in test [1] was 7.4%; in test [2], 24.6%; in [3], 34%; in [4], 5.2%; in [5] it was 8.4%; in test [6] it was 18.1%. Further, the Activity in [7] is under 5%; in test [8], 28.5%; in [9], under 5%; in [10] it was 48.2%.
As for `CC(C)(c1ccc(OCC2CCN(C3CN(C(=O)CCNc4ccc5c(c4)C(=O)N(C4CCC(=O)NC4=O)C5=O)C3)CC2)cc1)c1ccc(OC[C@H](O)CCl)cc1` (stereo not given in full), the Activity in test [1] is 20%; in test [2] it was under 5%; in test [3] it was 15.5%; in [4] it was 11.9%; in [5] it was 32.7%; in test [6], under 5%. Also, the Activity in [7] is under 5%; in test [8], 14.4%; in test [9], 19.8%; in test [10] it was 5%.
Regarding `CC(C)(c1ccc(OCC2CCN(C3CN(C(=O)CNc4ccc5c(c4)C(=O)N(C4CCC(=O)NC4=O)C5=O)C3)CC2)cc1)c1ccc(OC[C@H](O)CCl)cc1` (stereo not given in full), the Activity is under 5% in test [1]; under 5% in test [2]; 60.9% in test [3]; under 5% in [4]; under 5% in test [5]; under 5% in [6]. The Activity is under 5% in test [7], 37% in test [8], under 5% in [9] and under 5% in test [10].
Regarding `CC(C)(c1ccc(OCC2CCN(C(=O)CCCCCCNc3cccc4c3C(=O)N(C3CCC(=O)NC3=O)C4=O)CC2)cc1)c1ccc(OC[C@H](O)CCl)cc1` (stereo not given in full), the Activity in [1] was under 5%; in [2] it was 10.1%; in test [3] it was 39.8%; in test [4], 9.2%; in test [5], under 5%; in test [6], 11%. Further, the Activity in test [7] is 38%; in [8], 36.5%; in [9], under 5%; in test [10], under 5%.
Regarding `CC(C)(c1ccc(OCC2CCN(C(=O)CCCCOc3ccc4c(c3)C(=O)N(C3CCC(=O)NC3=O)C4=O)CC2)cc1)c1ccc(OC[C@H](O)CCl)cc1` (stereo not given in full), the Activity was under 5% in test [1]; under 5% in test [2]; 44.4% in [3]; under 5% in test [4]; under 5% in [5]; 56% in test [6]. Besides, the Activity in test [7] was 32.3%; in [8] it was 29.6%; in test [9] it was under 5%; in [10], 33.3%.
As to `CC(C)(c1ccc(OCC2CCN(C(=O)CCCCCCOc3ccc4c(c3)C(=O)N(C3CCC(=O)NC3=O)C4=O)CC2)cc1)c1ccc(OC[C@H](O)CCl)cc1` (stereo not given in full), the Activity in [1] was under 5%; in test [2], 20.1%; in [3], 92.7%; in [4], under 5%; in test [5] it was under 5%; in [6], 33.9%. The Activity was 16.4% in [7], 77.9% in test [8], 8% in test [9] and 34.4% in [10].
Take `CC(C)(c1ccc(OCC2CCN(C(=O)CCCCNc3cccc4c3C(=O)N(C3CCC(=O)NC3=O)C4=O)CC2)cc1)c1ccc(OC[C@H](O)CCl)cc1` (stereo not given in full): the Activity was under 5% in [1]; 12.4% in test [2]; 47.1% in test [3]; under 5% in [4]; under 5% in test [5]; 27.1% in test [6]. Further, the Activity in test [7] was 22.3%; in test [8], 39.6%; in test [9], under 5%; in test [10], 20.1%.
`CC(C)(c1ccc(OCC2CCN(C(=O)CCCCCCCNc3ccc4c(c3)C(=O)N(C3CCC(=O)NC3=O)C4=O)CC2)cc1)c1ccc(OC[C@H](O)CCl)cc1` (stereo not given in full): the Activity in test [1] was under 5%; in test [2] it was under 5%; in [3], 42%; in [4], 7%; in test [5], 4.9%; in [6], under 5%. Also, the Activity is 7.5% in test [7], 37.2% in test [8], 10.2% in [9] and under 5% in test [10].
Consider `CC(C)(c1ccc(OCC2CCN(C(=O)CCCCNc3ccc4c(c3)C(=O)N(C3CCC(=O)NC3=O)C4=O)CC2)cc1)c1ccc(OC[C@H](O)CCl)cc1` (stereo not given in full), for which the Activity worked out at 5.9% in test [1]; 8.6% in test [2]; 89.3% in test [3]; 8.2% in [4]; 8.5% in [5]; 9.3% in test [6]. In addition, the Activity in [7] is 21.6%; in test [8] it was 86%; in test [9] it was 13.7%; in test [10] it was 11.8%.
In the case of `CC(C)(c1ccc(OCC2CCN(C(=O)CCCCCOc3ccc4c(c3)C(=O)N(C3CCC(=O)NC3=O)C4=O)CC2)cc1)c1ccc(OC[C@H](O)CCl)cc1` (stereo not given in full), the Activity in test [1] was under 5%; in test [2], 5.8%; in [3], 95.5%; in test [4] it was 34%; in test [5] it was 5.9%; in test [6], 67.4%. In addition, the Activity in [7] amounted to 43.6%; in test [8], 86.1%; in test [9] it was 20%; in [10] it was 29.9%.
Take `CC(C)(c1ccc(OCC2CCN(C(=O)CCCCCCNc3ccc4c(c3)C(=O)N(C3CCC(=O)NC3=O)C4=O)CC2)cc1)c1ccc(OC[C@H](O)CCl)cc1` (stereo not given in full): the Activity in test [1] was under 5%; in test [2], 14.4%; in test [3] it was 79.8%; in test [4] it was under 5%; in [5] it was under 5%; in test [6], 30.7%. Besides, the Activity worked out at 33.1% in [7], 81% in test [8], 14.2% in test [9] and 8.6% in test [10].
As to `CC(C)(c1ccc(OCC2CCN(C(=O)CCCCC#Cc3ccc4c(c3)C(=O)N(C3CCC(=O)NC3=O)C4=O)CC2)cc1)c1ccc(OC[C@H](O)CCl)cc1` (stereo not given in full), the Activity in test [1] is under 5%; in test [2], 13.7%; in test [3], 30.7%; in [4], 26.4%; in test [5], under 5%; in test [6] it was 14.6%. Moreover, the Activity in test [7] was under 5%; in test [8], 25.5%; in test [9] it was 18.6%; in test [10], 34.8%.
As for `CC(C)(c1ccc(OCC2CCN(C3CN(C(=O)CCCCNc4ccc5c(c4)C(=O)N(C4CCC(=O)NC4=O)C5=O)C3)CC2)cc1)c1ccc(OC[C@H](O)CCl)cc1` (stereo not given in full), the Activity in test [1] is 14.9%; in test [2], 13.5%; in test [3], 41.2%; in [4], 6.4%; in [5], 17.7%; in test [6], under 5%. The Activity is under 5% in test [7], 33.8% in test [8], 40.9% in test [9] and 5% in test [10].
